Our source for the IC50 values is PMC9015998, “Non-clinical Pharmacology of YTX-7739: a Clinical Stage Stearoyl-CoA Desaturase Inhibitor Being Developed for Parkinson’s Disease” (Molecular Neurobiology, 2022).

This assay deals with T1, rat SCD (Rattus norvegicus, UniProt P07308).
T1 construct: rat liver microsomes (RLMs) isolated from rats fed a […] to induce SCD expression; from tissue; host or cells: rat liver microsomes (SCD-induced by diet); assay run at PureHoney Technologies
T1 sequence (P07308 1-358): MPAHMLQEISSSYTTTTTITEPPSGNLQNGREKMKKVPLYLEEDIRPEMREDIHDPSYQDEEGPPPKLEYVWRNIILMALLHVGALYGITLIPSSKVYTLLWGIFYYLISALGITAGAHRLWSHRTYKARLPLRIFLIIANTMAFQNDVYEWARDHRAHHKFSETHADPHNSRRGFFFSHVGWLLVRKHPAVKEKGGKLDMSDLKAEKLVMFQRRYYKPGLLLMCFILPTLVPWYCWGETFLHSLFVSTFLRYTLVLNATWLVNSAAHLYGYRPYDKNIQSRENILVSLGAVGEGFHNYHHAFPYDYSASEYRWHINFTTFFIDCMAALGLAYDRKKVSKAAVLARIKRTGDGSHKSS
Put plainly: SCD enzyme assay in SCD-induced rat liver microsomes (RLM). Type of assay: biochemical. As to conditions: C17:0-CoA substrate, Rapid-Fire mass spectrometry. The method, then: The SCD biochemical assay has been described previously (Vincent et al., 2018). In brief, SCD-induced rat liver microsomes (RLM) were isolated from […] fed a high-carbohydrate, low-fat diet for 5 days. RLM were then used in an optimized biochemical assay using C17:0-CoA as a substrate (Avanti Lipids, #870,717) and Rapid-Fire mass spectrometry to quantify conversion to C17:1-CoA. The RLM assay was performed at PureHoney Technologies (Billerica, MA).
An iterative medicinal chemistry campaign identified YTX-7739 as a SCD inhibitor that reduced conversion of saturated to unsaturated fatty acids (Fig. 1A). The potency of YTX-7739 in inhibiting SCD activity was initially assessed in rat liver microsomes (RLMs) isolated from rats fed a […] to induce SCD expression. RLMs were then used in conjunction with a synthetic C17:0-CoA SCD substrate and rapid-fire mass spectrometry to assess enzyme activity.
Fig. 1 Characterization of in vitro properties of YTX-7739. A SCD reaction converting CoA-linked saturated to monounsaturated fatty acids of 16 (palmitoleic acid) or 18 (oleic acid) carbons in length. […] B YTX-7739 and a reference SCD inhibitor (CAY10566) was tested in a biochemical assay using SCD-induced RLM and C17:0-CoA with Rapid-Fire mass spectrometry as an analytical readout. […] The calculated IC50 values are inset. […]

Regarding `Cc1nnc(-c2ccc(N3CCC(Oc4cc(F)ccc4Cl)CC3)nn2)o1` [CAY10566], half-maximal inhibition (IC50) was put at 1.1 nM.
